According to patent US9364448B2, “Nitisinone for treatment of oculocutaneous/ocular albinism and for increasing pigmentation” (The United States of America, as represented by the …, priority 2010, dated 2016):

Columns and labels:
[1] = tested on: C57BL/6J-Tyr^c-h/c-h mice (OCA1b model); experiment: Plasma tyrosine in NTBC-treated Tyr^c-h/c-h (Himalayan) mice; type: in vivo, mouse
Description: (§1) Drug Dosing and Monitoring.
Plasma tyrosine was assayed from retro-orbital blood taken from mice at 1 week, and 4 weeks into treatment. Because the volume of blood that could be obtained from non-terminal bleeds was small, the plasma from 2-3 mice was pooled to make a single measurement. Plasma samples were frozen immediately after collection on dry ice. Samples ready for assay were gently thawed, diluted with an equal volume of loading buffer (0.2 M lithium citrate, pH 2.2), and filtered using Vivaspin 500 (3000 Da molecular weight cut-off, Sartorius Stedman Biotech, Goettingen, Germany) spun in a fixed angle centrifuge at about 14000×g for 60 minutes at a temperature of about 16-20° C. The supernatant was collected and tyrosine was quantitated on a Biochrom 30 […] (Biochrom, Ltd., Cambridge, UK) using the manufacturer's specifications.
(§2) Using the same protocol as described above, baseline plasma tyrosine, coat color (gross and microscopic), anterior segment pigment, and posterior segment pigment was documented for each mouse prior to initiating experiments. […] These treated mice were compared to an age- and gender-matched cohort of C57BL/6J-Tyr^c-h/c-h mice over the same time period. Corneal irritation due to NTBC treatment was monitored daily. At the start of treatment, an area of hair was plucked/shaved from each mouse's back, which has the effect of stimulating new hair growth and possibly new pigment deposition in the hair shaft. At the end of four weeks' time, plasma tyrosine concentrations were assessed in both treated and control animals.

[2] = tested on: C57BL/6J-Tyr^c-h/c-h mice (OCA1b model); experiment: Coat and ocular pigmentation, clinical examination and electron microscopy, Tyr^c-h/c-h mice; type: in vivo, mouse
Description: Animal Husbandry and Clinical Examination. C57BL/6J mice (Stock #000664), C57BL/6JTyr^c-2J/c-2J mice (Stock #000058, MGI ID#1855985), and C57BL/6Tyr^c-h/c-h (Stock #000104, MGI ID#1855979) were obtained from the Jackson Laboratory (Bar Harbor, Me.). Mice were housed according to the institutional Animal Review Board standards with a 14 hour light/10 hour dark cycle. These studies conformed to the principles for laboratory animal research outlined by the Animal Welfare Act (NIH/HHS) and the ARVO Statement for the Use of Animals in Ophthalmic and Vision Research and were approved by the Institutional Animal Care and Use Committee of the National Eye Institute. Clinical examination and imaging of the anterior segment of mice were performed on gently-restrained, awake mice using a Haag-Streit BQ slit lamp and Imaging Module IM900® software (Haag-Streit, Inc., Mason, Ohio). Clinical examination of the posterior segment was performed on gently restrained, awake mice after dilation with one drop of 1% tropicamide (Alcon Laboratories, Inc., Fort Worth, Tex.) using an indirect ophthalmoscope (Keeler, Windsor, Berkshire, UK) with a 90D condensing lens (Volk, Mentor, Ohio). Fundus images were obtained on mice sedated with intraperitoneally injected […] diluted in normal saline. Images were obtained using a Nikon D.90 digital SLR camera with a Nikon 85 mm f/2.8D micro AF-S ED lens mounted to a custom-made aluminum stand, using a 5 cm long Hopkins rigid otoscope coupled to a Xenon Nova light source (175 watt) and fiberoptic cable (Karl Storz, Tuttlingen, Germany). Mice were euthanized with carbon dioxide according to institutional guidelines.
as §1, §2
Assessment of the effect treatment and the end of the experimental time period commences with photodocumentation of coat color, anterior segment pigment and posterior segment pigment of each mouse. The mice were sacrificed using standard CO2 euthanasia protocol. One eye from each mouse was submitted for light microscopy, while the other is prepared for electron microscopy. Liver and kidney tissues were collected and processed for light microscopy histology, to insure no pathology is associated with treatment. Additional blood samples were taken and frozen at the time of euthanasia, for possible future studies. Hair shafts in plucked and non-plucked areas were examined and photographed under light microscopy. Melanosome number and size was quantified in the retinal pigmented epithelial cells (RPE) and choroid of the posterior pole of both treated and untreated mice, in a masked fashion, as previously described above.

[3] = tested on: wild-type human melanocytes; experiment: Human melanocyte melanin assay, wild-type (control); type: cell-based; settings: 1 mM tyrosine, about one week
Description: (§3) Human melanocyte culture and melanin assay. Human melanocytes were established from skin punch biopsies. Skin specimens were washed with PBS then treated with 0.25% trypsin-EDTA (Gibco 25200) for about 2 hours followed by vigorous vortexing to separate the epidermis. The epidermis was sectioned and attached to scored patches on the bottom of a 6-well polystyrene culture dish before being covered with melanocyte media. About 1000 ml of melanocyte media was made from 950 ml Ham's F10 (Gibco 1550), 25 ml FBS, 5 ug bFGF (Sigma F0291), 10 μg endothelin (Sigma, E7764, Sigma Chemicals, St. Louis, Mo.), 7.5 mg IBMX (Sigma 17018), 30 μg cholera toxin (Sigma C8052), 3.3 μg TPA (Sigma P8139), 10 ml PenStrepGlutamine, 1 ml fungizone and the media was 0.22 μm filtered.
(§4) Melanocytes were plated on 6 well dishes and grown to confluency. Melanin assays were run in triplicate by supplementing three wells per plate with 1 mM tyrosine (Sigma T8566), using the remaining 3 wells as untreated controls. Treatment time was approximately one week. […] The OD475 was measured and converted to melanin content via a standard curve using synthetic melanin (Sigma M0418). The data were normalized to protein content, determined using a bicinchoninic (BCA) assay kit (BioRad, Inc., Hercules, Calif.). Differences between treated and untreated measurements were analyzed with a two-tailed unpaired t-test. […]

[4] = tested on: melanocytes from an OCA-1A patient; experiment: Human melanocyte melanin assay, OCA-1A patient; type: cell-based; settings: presence or absence of 1 mM tyrosine
Description: as §3, §4

[5] = Tyr^c-h/c-h mice, dose as in Example 1 (1 mg/kg every other day), one month
[6] = Tyr^c-h/c-h (Himalayan) mice, 4 mg/kg orally every other day, one month

| Structure (SMILES) | Plasma tyrosine concentration ([1]; Tyr^c-h (OCA1b model), 4 mg/kg q.o.d. oral, after 30 days, n = 4) | Increase in steady-state plasma tyrosine concentrations ([1]; Tyr^c-h/c-h mice, 4 mg/kg orally every other day, vs control) | Plasma tyrosine concentrations, treated vs control [1, 5] | Fundus pigmentation [2, 6] | Iris pigmentation [2, 6] | Coat pigmentation, treated vs control ([2]; Tyr^c-h/c-h mice, 4 mg/kg orally every other day, one month, shaved patch) | Phenotypic changes [2, 5] | RPE and choroidal melanosome pigment content (electron microscopy) ([2]; Tyr^c-h/c-h mice, treated vs control, preliminary data, FIG. 3) | Melanin production [3] | Pigment production [4] |
| --- | --- | --- | --- | --- | --- | --- | --- | --- | --- | --- |
| O=C1CCCC(=O)C1C(=O)c1ccc(C(F)(F)F)cc1[N+](=O)[O-] [NTBC, 2-(-2-nitro-4 trifluoromethylbenzoyl)-1,3 cyclohexanedione] | 305 ± 35 μM (n = 4, | ~4 fold | not statistically significantly different | grossly unchanged | some increase in iris pigmentation | observable increase in pigmentation | no phenotypic changes | significant increase | – | – |
| N[C@@H](Cc1ccc(O)cc1)C(=O)O [tyrosine] | – | – | – | – | – | – | – | – | produce significant melanin | did not produce detectable pigment |
